{"source": "paper PMC9917282", "about": "“Crystal Structure of Inhibitor-Bound Bacterial Oligopeptidase B in the Closed State: Similarity and Difference between Protozoan and Bacterial Enzymes” (International Journal of Molecular Sciences, 2023)", "molecular_target": "T1, SpOpB (PSP) (Serratia proteamaculans, UniProt B3VI58)", "T1 construct": "gene opdB; plasmid pET-6HisOpB, expressed in E. coli BL21(DE3)RIPL; monomer in asymmetric unit", "T1 sequence (B3VI58 2-677)": "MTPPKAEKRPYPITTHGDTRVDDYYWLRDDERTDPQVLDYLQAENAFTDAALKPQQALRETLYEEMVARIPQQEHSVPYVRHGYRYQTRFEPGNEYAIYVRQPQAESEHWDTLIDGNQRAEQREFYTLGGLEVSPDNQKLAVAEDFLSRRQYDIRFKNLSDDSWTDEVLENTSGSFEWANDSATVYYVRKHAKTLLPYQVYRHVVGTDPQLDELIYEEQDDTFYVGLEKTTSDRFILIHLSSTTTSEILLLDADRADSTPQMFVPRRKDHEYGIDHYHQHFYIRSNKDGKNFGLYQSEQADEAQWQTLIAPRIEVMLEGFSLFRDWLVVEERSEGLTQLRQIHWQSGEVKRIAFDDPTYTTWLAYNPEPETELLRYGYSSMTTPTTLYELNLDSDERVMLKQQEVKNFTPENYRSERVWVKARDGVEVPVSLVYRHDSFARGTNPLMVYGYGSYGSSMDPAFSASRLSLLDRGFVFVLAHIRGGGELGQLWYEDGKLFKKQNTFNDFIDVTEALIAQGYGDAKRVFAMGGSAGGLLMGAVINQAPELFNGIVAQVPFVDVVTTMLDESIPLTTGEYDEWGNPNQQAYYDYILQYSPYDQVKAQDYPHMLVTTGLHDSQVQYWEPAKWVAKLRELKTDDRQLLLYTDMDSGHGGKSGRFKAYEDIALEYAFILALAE", "experiment": "Kitz-Wilson inactivation kinetics, residual BAPNA hydrolysis at […] nm; crystal structure of complex at […] A", "type": "biochemical", "conditions": "covalent; irreversible alkylation, Ki of the initial enzyme-inhibitor complex; bound to S532 and H652; 0.1 M Tris-HCl pH 8.0, 25 °C; 70 nM enzyme, 50–260 µM TCK", "data": [{"smiles": "Cc1ccc(S(=O)(=O)N[C@@H](CCCCN)C(=O)CCl)cc1", "note": "[TCK]", "values": [{"measurement": "KI (inactivation)", "value": "280 ± 60", "unit": "µM"}]}]}
